Measured values published in PubChem BioAssay (NCI).
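Compound exposure: 48 hours, 5 concentrations, 96-well plates. TGI: total growth inhibition.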

What was measured:
Experiment in all cases: NCI-60 cell line screen, 48 h
[1] = test system: 786-0 renal
[2] = test system: A549 NSCLC
[3] = test system: ACHN renal
[4] = test system: CAKI-1 renal
[5] = test system: CCRF-CEM leukemia
[6] = test system: COLO 205 colon
[7] = test system: DLD-1 colon
[8] = test system: DMS 114 small cell lung
[9] = test system: DMS 273 small cell lung
[10] = test system: EKVX NSCLC
[11] = test system: HCT-116 colon
[12] = test system: HCT-15 colon
[13] = test system: HOP-18 NSCLC
[14] = test system: HOP-62 NSCLC
[15] = test system: HOP-92 NSCLC
[16] = test system: HT29 colon
[17] = test system: IGROV1 ovarian
[18] = test system: K-562 leukemia
[19] = test system: KM12 colon
[20] = test system: KM20L2 colon
[21] = test system: LOX IMVI melanoma
[22] = test system: LXFL 529 NSCLC
[23] = test system: M14 melanoma
[24] = test system: M19-MEL melanoma
[25] = test system: MALME-3M melanoma
[26] = test system: MOLT-4 leukemia
[27] = test system: NCI-H226 lung
[28] = test system: NCI-H23 lung
[29] = test system: NCI-H460 lung
[30] = test system: NCI-H522 lung
[31] = test system: OVCAR-3 ovarian
[32] = test system: OVCAR-4 ovarian
[33] = test system: OVCAR-5 ovarian
[34] = test system: OVCAR-8 ovarian
[35] = test system: RPMI-8226 leukemia
[36] = test system: RXF 393 renal
[37] = test system: SF-268 CNS
[38] = test system: SF-295 CNS
[39] = test system: SF-539 CNS
[40] = test system: SK-MEL-2 melanoma
[41] = test system: SK-MEL-28 melanoma
[42] = test system: SK-MEL-5 melanoma
[43] = test system: SK-OV-3 ovarian
[44] = test system: SN12C renal
[45] = test system: SNB-19 CNS
[46] = test system: SNB-75 CNS
[47] = test system: SNB-78 CNS
[48] = test system: SW-620 colon
[49] = test system: TK-10 renal
[50] = test system: U251 CNS
[51] = test system: UACC-257 melanoma
[52] = test system: UACC-62 melanoma
[53] = test system: UO-31 renal
[54] = test system: XF 498 CNS
[55] = test system: A498 renal
[56] = test system: HCC-2998 colon
[57] = test system: HL-60(TB) leukemia
[58] = test system: SR leukemia

Measured: TGI

Cn1cc(NC(=O)c2cc(NC(=O)CCCCCCCCCC(=O)Nc3cc(C(=O)Nc4cc(C(=O)NCCC(=N)N)n(C)c4)n(C)c3)cn2C)cc1C(=O)NCCC(=N)N
75 µM: [38]
81.3 µM: [14]
66.4 µM: [33]
83.1 µM: [10] | [34]
57.1 µM: [2]
70.1 µM: [23]
89.3 µM: [37]
69.2 µM: [5]
54.9 µM: [35]
26.7 µM: [25]
82.1 µM: [26]
85.9 µM: [49]
31.7 µM: [19]
98.9 µM: [54]
93.3 µM: [1]
65.5 µM: [15]
62.2 µM: [41]
35.1 µM: [31]
55.4 µM: [46]
83.5 µM: [21]
73.3 µM: [3]
96.1 µM: [13]
46.2 µM: [16]
not listed: [55] | [56] | [57] | [58]
> 100 µM: all other assays above

Cc1ccc(S(=O)(=O)NC2CCCCO2)cc1 (centres undefined)
not listed: [38] | [40] | [49] | [57] | [58]
> 100 µM: all other assays above

COC(=O)C(/C(=N/NC(N)=O)C(=O)Nc1c(C)cccc1C(C)(C)C)c1nc2ccc(Cl)cc2[nH]c1=O (centres undefined)
not listed: [6]
> 100 µM: all other assays above
